Results taken from patent US11279733B2, “Peptide antibiotics” (priority 2017, dated 2022).
≈ marks a conversion by molar mass, not a printed value. Where two headings read alike, the source gives them in different places. Starred links: 1 amine or outer side, 2 acyl side, 3 side chain; linkers in the order of their positions; H or OH if unused. Positions of bridges follow the written chain, without caps; N, C: chain ends. Non-standard residues stand in square brackets, D forms with d. Residues, ends and D or L forms follow the SMILES beside them. *: point of attachment. Decanoyl(3R-OH) = CCCCCCC[C@@H](O)CC(=O)*; azaDab = NCCN(N[*:1])C(=O)[*:2]; dDab = NCC[C@@H](N)C(=O)O; dDap = NC[C@@H](N)C(=O)O; Dab = NCC[C@H](N)C(=O)O

Columns and labels:
[1] = In vitro nephrotoxicity, GGT release from primary human kidney cells; format: cell-based; settings: pH 7.4
From the text: (§1) hPT cells were derived from whole human kidneys procured by the International Institute for the Advancement of Medicine (Edison, N.J., USA). All tissue was scored by a pathologist as normal (i.e., derived from non-cancerous, non-diseased tissue). Cell isolation procedures were based on those originally described by Todd et al. (1996) and modified (Cummings and Lash, 2000; Cummings et al., 2000) with use of sterile conditions (i.e., all instruments and glassware were autoclaved and all buffers were filtered through a 0.2-μm pore-size filter). Renal cortex and outer stripe were cut into slices, washed with sterile PBS, minced, and the pieces were placed in a trypsinization flask filled with 300 ml of sterile, filtered Hanks' buffer, containing 25 mM NaHCO3, 25 mM HEPES, pH 7.4, 0.5 mM EGTA, 0.2% (w/v) bovine serum albumin, 50 μg/ml gentamicin, 1.3 mg/mL collagenase, and 0.59 mg/ml CaCl2), which was filtered prior to use. Whole kidneys were perfused with Wisconsin medium and kept on ice until they arrived at the laboratory, which was usually within 24 h of removal from the donor.
(§2) All buffers were continuously bubbled with 95% O2/5% CO2 and were maintained at 37° C. Minced cortical pieces from whole kidneys were subjected to collagenase digestion for 60 min, after which the supernatant was filtered through a 70-μm mesh filter to remove tissue fragments, centrifuged at 150×g for 7 min, and the pellet resuspended in Dulbecco's Modified Eagle's Medium: Ham's F12 Medium (DMEM/F12; 1/1). Approximately 5 to 7×10^6 cells were obtained per 1 g of human kidney cortical tissue.
(§3) hPT cells were resuspended in 2 mL of DMEM/F12 and diluted to 500 mL with cell culture medium, which was serum-free and hormonally-defined. Composition of this supplemented medium was based on earlier work establishing optimal conditions for primary culture of rat PT cells (Lash et al., 1995). Basal medium was a 1:1 mixture of DMEM/F12. […] Cells were seeded in a volume of 0.5 ml at a density of 50-100 μg protein per cm^2 (0.5-1.0×10^6 cells/ml) on 24-well plates. Cultures were grown at 37° C. in a humidified incubator under an atmosphere of 95% air/5% CO2 at pH 7.4. Cultures were grown to approximately 80%-90% confluence (generally 5-6 days) prior to experiments. Cells were harvested by either scraping the flasks with a Teflon scraper or by brief incubation with Cellstripper (Cellgro, Herndon, Va., USA) (in Ca^2+- and Mg^2+-free Hanks' buffer).
Release of gamm-glutanyltransferase was assessed according to Orlowski, M., Meister, A. 1963. γ-Glutamyl-p-nitroanilide: A new convenient substrate for determination and study of L- and D-γ-glutamyltranspeptidase activities (Biochim. Biophys. Acta 73: 679-681.)
A 2.5 mM substrate Solution was prepared from 67 mg γ-glutamyl-p-nitroanilide+264 mg glycylglycine in 100 mL of 0.05 M Tris, pH 8.2 (50 mM Tris, pH 8.2: 605 mg Tris/HCl per 100 mL).
For the assay in 96-well plates, 6-μL of sample and 0.3 mL substrate solution were added to each well. The absorbance was measured at 410 nm for the appearance of product, p-nitroanilide (molar extinction=8800 M^−1 cm^−1).

[2] = tested on: Neisseria gonorrhoeae; test: MIC determination, Neisseria gonorrhoeae; format: cell-based; settings: for MIC N. gonorrhoeae FA19 ATCC BAA-1838: strain FA19 ATCC BAA-1838
Summary of the method: (§4)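 Mid-log cultures grown in Mueller Hinton broth at 37° C were tested by 2-fold broth microdilution at 5×10^5 CFU/mL final. Compounds were dissolved in water and tested over a final range of 32 to 0.015 μg/mL.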

[3] = In vitro nephrotoxicity, LDH release from primary human kidney cells; format: cell-based; settings: pH 7.4
From the text: as §1, §2, §3

[4] = tested on: K. pneumoniae GN_102 PmxR; settings: GN 102 PmxR
Summary of the method: as §4

[5] = tested on: A. baumannii GN_093 PmxR; settings: GN 093 PmxR
Summary of the method: as §4

[6] = tested on: A. baumannii ATCC 19606; settings: ATCC 19606
Summary of the method: as §4

[7] = tested on: K. pneumoniae ATCC 700603, MDR; settings: ATCC 700603
Summary of the method: as §4

[8] = tested on: P. aeruginosa GN_105, PmxR; settings: GN 105, PmxR
Summary of the method: as §4

[9] = tested on: K. pneumoniae ATCC 13883; settings: ATCC 13883
Summary of the method: as §4

[10] = tested on: K. pneumoniae GN_106, PmxR; settings: GN 106, PmxR
Summary of the method: as §4

[11] = tested on: E. coli ATCC 25922; settings: ATCC 25922
Summary of the method: as §4

[12] = tested on: P. aeruginosa ATCC 27853; settings: ATCC 27853
Summary of the method: as §4

[13] = tested on: P. aeruginosa GN_043, PmxR
Summary of the method: as §4

[14] = tested on: K. pneumoniae ATCC BAA-2146, NDM-1 pos; settings: ATCC BAA-2146
Summary of the method: as §4

[15] = tested on: S. aureus ATCC 25923, MSSA; settings: ATCC 25923
Summary of the method: as §4

[16] = in vitro; settings: human
Summary of the method: (§5)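 Compound exposure lasted 24 h, following 24 h attachment of 4000 cells/well at 37° C under 5% CO2.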

[17] = in vitro; settings: human; remark: listed apart in the source
Summary of the method: as §5

[18] = tested on: HepG2 cells; test: in vitro; settings: human, 24 h
Summary of the method: as §5

[19] = tested on: HEK293 cells; test: in vitro; settings: human, 24 h
Summary of the method: as §5

| SMILES | CC50 [1] [µg/mL] | MIC N. gonorrhoeae FA19 ATCC BAA-1838 [2] [µg/mL] | CC50 [3] [µg/mL] | MIC, A. baumannii ATCC 19606 [6] [µg/mL] | MIC, K. pneumoniae ATCC 700603, MDR [7] [µg/mL] | MIC, K. pneumoniae ATCC 13883 [9] [µg/mL] | MIC, E. coli ATCC 25922 [11] [µg/mL] | MIC, P. aeruginosa ATCC 27853 [12] [µg/mL] | MIC, K. pneumoniae ATCC BAA-2146, NDM-1 pos [14] [µg/mL] | CC50 at 24 h [16] [µM] | MIC K. pneumoniae Cl Koprana 10065 0661:1 PmxR [4] [µg/mL] | MIC A. baumannii Cl Ptyela 10073 4512:2, PmxR [5] [µg/mL] | MIC A. baumannii ATCC 19606 [6] [µg/mL] | MIC K. pneumoniae ATCC 700603, MDR [7] [µg/mL] | MIC P. aeruginosa PA9704, PmxR [8] [µg/mL] | MIC K. pneumoniae ATCC 13883 [9] [µg/mL] | MIC K. pneumoniae Cl 183-16357-20352, PmxR [10] [µg/mL] | MIC E. coli ATCC 25922 [11] [µg/mL] | MIC P. aeruginosa ATCC 27853 [12] [µg/mL] | MIC, P. aeruginosa FADDI-PA070, PmxR ([13]; strain name as in Table 11) [µg/mL] | further results |
| --- | --- | --- | --- | --- | --- | --- | --- | --- | --- | --- | --- | --- | --- | --- | --- | --- | --- | --- | --- | --- | --- |
| CCCCCCC[C@@H](O)CC(=O)N[C@H](CN)C(=O)N[C@H]1CCNC(=O)[C@H](CC(C)C)NC(=O)[C@H](CCN)NC(=O)[C@H](CCN)NC(=O)[C@H](CC(C)C)NC(=O)[C@@H](Cc2ccccc2)NC(=O)[C@H](CCN)NC1=O [compound 6442, 3(R)OH-nC9CO-D-Dap-cyc[L-Dab-L-Dab-D-Phe-L-Leu-L-Dab-L-Dab-L-Leu]] ({Decanoyl(3R-OH)}-[dDap][Dab][Dab][dF]L[Dab][Dab]L; lactam 2-C) | > 128 | 1.56 (≈ 1.51 µM) | > 128 | 4 (≈ 3.88 µM) | 4 (≈ 3.88 µM) | 4 (≈ 3.88 µM) | 2 (≈ 1.94 µM) | 2 (≈ 1.94 µM) | 8 (≈ 7.76 µM) | > 300 |  |  |  |  |  |  |  |  |  |  | MIC N. gonorrhoeae F89 ([2]; strain F89): 1.56 µg/mL (≈ 1.51 µM); MIC N. gonorrhoeae FA1090 A25 ATCC 700825 ([2]; strain FA1090 A25 ATCC 700825): 1.3 µg/mL (≈ 1.26 µM); MIC N. gonorrhoeae H041 ([2]; strain H041): 1.56 µg/mL (≈ 1.51 µM); MIC K. pneumoniae GN_102 PmxR [4]: 2 µg/mL (≈ 1.94 µM); MIC A. baumannii GN_093 PmxR [5]: 4 µg/mL (≈ 3.88 µM); MIC P. aeruginosa GN_105, PmxR [8]: 2 µg/mL (≈ 1.94 µM); MIC K. pneumoniae GN_106, PmxR [10]: 4 µg/mL (≈ 3.88 µM); MIC P. aeruginosa GN_043, PmxR ([13]; Table 6, polymyxin-resistant): 2 µg/mL (≈ 1.94 µM); MIC, S. aureus ATCC 25923, MSSA [15]: 16 µg/mL (≈ 15.5 µM) |
| CCCCCCC[C@@H](O)CC(=O)NN(CCN)C(=O)N[C@H]1CCNC(=O)[C@H](CC(C)C)NC(=O)[C@H](CCN)NC(=O)[C@H](CCN)NC(=O)[C@H](CC(C)C)NC(=O)[C@@H](Cc2ccccc2)NC(=O)[C@H](CCN)NC1=O [compound 8639, 3(R)OH-nC9CO-azaDab-cyc[L-Dab-L-DAB-D-Phe-L-Leu-L-Dab-L-Dab-L-Leu]] ({Decanoyl(3R-OH)}-[azaDab][Dab][Dab][dF]L[Dab][Dab]L; lactam 2-C) | > 128 | 0.78 (≈ 0.746 µM) | > 128 |  |  |  |  |  |  |  | 2 (≈ 1.91 µM) | 8 (≈ 7.65 µM) | 4 (≈ 3.83 µM) | 2 (≈ 1.91 µM) | 2 (≈ 1.91 µM) | 4 (≈ 3.83 µM) | 2 (≈ 1.91 µM) | 2 (≈ 1.91 µM) | 2 (≈ 1.91 µM) | 2 (≈ 1.91 µM) | MIC K. pneumoniae ATCC BAA-2146, NDM-1 pos [14]: 4 µg/mL (≈ 3.83 µM); MIC S. aureus ATCC 25923, MSSA [15]: 8 µg/mL (≈ 7.65 µM) |
| CCCCCCC[C@@H](O)CC(=O)N[C@H](CCN)C(=O)N[C@H]1CCNC(=O)[C@H](CC(C)C)NC(=O)[C@H](CCN)NC(=O)N(CCN)NC(=O)[C@H](CC(C)C)NC(=O)[C@@H](Cc2ccccc2)NC(=O)[C@H](CCN)NC1=O [compound 8641, 3(R)OH-nC9CO-D-Dab-cyc[L-Dab-L-DAB-D-Phe-L-Leu-azaDab-L-Dab-L-Leu]] ({Decanoyl(3R-OH)}-[dDab][Dab][Dab][dF]L[azaDab][Dab]L; lactam 2-C) | > 128 |  | > 128 |  |  |  |  |  |  | > 300 | 2 (≈ 1.91 µM) | 32 (≈ 30.6 µM) | 8 (≈ 7.65 µM) | 4 (≈ 3.83 µM) | 2 (≈ 1.91 µM) | 4 (≈ 3.83 µM) | 4 (≈ 3.83 µM) | 4 (≈ 3.83 µM) | 2 (≈ 1.91 µM) | 2 (≈ 1.91 µM) | CC50 at 24 h [17]: > 300 µM; CC50 [18]: > 300 µM; MIC K. pneumoniae ATCC BAA-2146, NDM-1 pos [14]: 8 µg/mL (≈ 7.65 µM); MIC S. aureus ATCC 25923, MSSA [15]: 32 µg/mL (≈ 30.6 µM); CC50 [19]: > 300 µM |
| CCCCCCC[C@@H](O)CC(=O)N[C@H](CCN)C(=O)N[C@H]1CCNC(=O)[C@H](CC(C)C)NC(=O)[C@H](CCN)NC(=O)[C@H](CCCNC(=N)N)NC(=O)[C@H](CC(C)C)NC(=O)[C@@H](Cc2ccccc2)NC(=O)[C@H](CCN)NC1=O [compound 8733, 3(R)OH-nC9CO-D-Dab-cyc[L-Dab-L-DAB-D-Phe-L-Leu-L-Arg-L-Dab-L-Leu]] ({Decanoyl(3R-OH)}-[dDab][Dab][Dab][dF]LR[Dab]L; lactam 2-C) | > 128 | 0.78 (≈ 0.709 µM) | > 128 | 4 (≈ 3.63 µM) | 2 (≈ 1.82 µM) | 2 (≈ 1.82 µM) | 2 (≈ 1.82 µM) | 2 (≈ 1.82 µM) | 4 (≈ 3.63 µM) |  |  |  |  |  |  |  |  |  |  |  | MIC, K. pneumoniae Cl Koprana 10065 0661:1, PmxR [4]: 2 µg/mL (≈ 1.82 µM); MIC, A. baumannii Cl Ptyela 10073 4512:2, PmxR [5]: 8 µg/mL (≈ 7.27 µM); MIC, P. aeruginosa PA9704, PmxR [8]: 2 µg/mL (≈ 1.82 µM); MIC, K. pneumoniae Cl 138-16347-20362, PmxR [10]: 2 µg/mL (≈ 1.82 µM); MIC, P. aeruginosa FADDI-PA070, PmxR ([13]; Table 5, polymyxin-resistant): 2 µg/mL (≈ 1.82 µM); MIC, S. Aureus ATCC 25923, MSSA [15]: 8 µg/mL (≈ 7.27 µM) |
